According to patent US20200138827A1, “SMALL MOLECULE MODULATORS OF HUMAN STING” (Curadev Pharma Limited, priority 2017, published 2020):
pEC50: −log10 of the molar value.

molecular target: T1, WT/R232 STING protein (Homo sapiens, UniProt Q86WV6, H232R); experiment: Luciferase reporter assay in HEK293T-hSTING-Luciferase cells, WT/R232; type: cell-based; conditions: 20 hr stimulation, read-out: R232 Activity (EC50 range)
T1 construct: host or cells: HEK293T
From the text: • a) Stable STING expressing cells—Stable HEK293T STING-expressing cell lines were generated using plasmids purchased from Invivogen, Calif., USA, that contain STING cDNA cloned into the pUNO-1 vector under hEF1-HTLV promoter and containing the Blasticidin selection cassette. The plasmids hSTING(R232), hSTING(H232), hSTING(HAQ) were directly procured from Invivogen while hSTING (AQ) and hSTING (Q) were derived from hSTING(HAQ) and hSTING (R232) plasmids respectively by using a PCR based site directed mutagenesis method. These vectors were individually transfected into HEK293T cells using Lipofectamine (Invitrogen) and transfected cells were selected under Blasticidin selection. These transfected cells were further subjected to clonal selection using the limiting dilution method to obtain clonally pure populations of HEK cells transfected with each of the above mentioned human STING variants. Only those clones were selected in which ligand independent activation of STING was minimal. • b) Stable Luciferase reporter gene expressing cells—Stable HEK293T Luciferase reporter gene expressing cell lines were generated using pCDNA4 plasmids under an IRF-inducible promoter. This promoter is comprised of five tandem interferon-stimulated response elements (ISRE) fused to an ISG54 minimal promoter. This vector was transfected into HEK293T cells using Lipofectamine (Invitrogen) and transfected cells were selected under Zeocin selection. These transfected cells were further subjected to clonal selection using the limiting dilution method to obtain clonally pure populations of HEK cells transfected the Luciferase reporter construct. Only those clones were selected in which ligand independent induction of luciferase was minimal.
5×10^5 clonally selected HEK293T-hSTING-Luciferase cells were seeded in 384-well plates in growth medium and stimulated with novel compounds. After 20 hr of stimulation supernatant were removed and secretary reporter gene activity were measured using the Quanti-Luc detection system (Invivogen) on a Spectramax i3X luminometer.
All compounds were first tested in a primary screen using WT/R232 STING protein to obtain a ‘fold-induction’ over baseline levels of protein activity.

T1 sequence (Q86WV6 whole entry H232R): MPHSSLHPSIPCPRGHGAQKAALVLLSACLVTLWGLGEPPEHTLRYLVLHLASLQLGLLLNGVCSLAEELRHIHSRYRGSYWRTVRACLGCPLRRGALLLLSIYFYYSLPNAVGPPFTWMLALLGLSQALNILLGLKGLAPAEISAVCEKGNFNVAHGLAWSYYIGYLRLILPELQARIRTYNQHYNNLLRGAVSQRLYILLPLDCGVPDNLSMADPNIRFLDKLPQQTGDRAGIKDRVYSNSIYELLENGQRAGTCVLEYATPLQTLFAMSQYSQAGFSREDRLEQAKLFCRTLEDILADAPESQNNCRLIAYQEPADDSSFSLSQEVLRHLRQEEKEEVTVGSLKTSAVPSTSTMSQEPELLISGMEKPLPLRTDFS

Row | Compound | pEC50
1 | O=C(NCC1CCCC1)c1ccc2c(c1)N(Cc1c(F)cccc1Cl)C(=O)CS2 [Example 35, 4-(2-chloro-6-fluorobenzyl)-N-(cyclopentyl-methyl)-3-oxo-3,4-dihydro-2H-benzo[b][1,4] thiazine-6-carboxamide] | < 5.00
2 | Cc1ccc(CNC(=O)c2ccc3c(c2)N(Cc2c(F)cccc2Cl)C(=O)CS3)cn1 [Example 36, 4-(2-chloro-6-fluorobenzyl)-N-((6-methyl-pyridin-3-yl)methyl)-3-oxo-3,4-dihydro-2H-benzo[b-1,4]thiazine-6-carboxamide] | < 5.00
3 | O=C(NCc1cccc(F)c1)c1ccc2c(c1)N(Cc1c(F)cccc1Cl)C(=O)CS2 [Example 38, 4-(2-chloro-6-fluorobenzyl)-N-(3-fluorobenzyl)-3-oxo-3,4-dihydro-2H-benzo[b-1,4]thiazine-6-carboxamide] | 5.00 to 6.00
4 | N#CCC(CNC(=O)c1ccc2c(c1)N(Cc1c(F)cccc1Cl)C(=O)CS2)c1ccccc1 (centres unmarked) [Example 41, 4-(2-chloro-6-fluorobenzyl)-N-(3-cyano-2-phenylpropyl)-3-oxo-3,4-dihydro-2H-benzo[b-1,4]thiazine-6-carboxamide] | < 5.00
5 | O=C(NC(c1ccccc1)c1ccccc1)c1ccc2c(c1)N(Cc1ccccc1F)C(=O)CS2 [Example 42, N-benzhydryl-4-(2-fluorobenzyl)-3-oxo-3,4-dihydro-2H-benzo[b][1,4] thiazine-6-carboxamide] | < 5.00
6 | O=C(NCC(c1ccccc1)C1CCCCC1)c1ccc2c(c1)N(Cc1c(F)cccc1Cl)C(=O)CS2 (centres unmarked) [Example 43, 4-(2-chloro-6-fluorobenzyl)-N-(2-cyclohexyl-2-phenylethyl)-3-oxo-3,4-dihydro-2H-benzo[b][1,4] thiazine-6-carboxamide] | < 5.00
7 | O=C(NCC1CCCN(Cc2ccccc2)C1)c1ccc2c(c1)N(Cc1ccccc1F)C(=O)CS2 (centres unmarked) [Example 44, N-((1-benzylpiperidin-3-yl)methyl)-4-(2-fluorobenzyl)-3-oxo-3,4-dihydro-2H-benzo[b][1,4] thiazine-6-carboxamide] | < 5.00
8 | O=C(NCC1CCN(c2ccccc2)CC1)c1ccc2c(c1)N(Cc1ccccc1F)C(=O)CS2 [Example 45, 4-(2-fluorobenzyl)-3-oxo-N-((1-phenyl-piperidin-4-yl)methyl)-3,4-dihydro-2H-benzo[b][1,4] thiazine-6-carboxamide] | < 5.00
9 | O=C(NCc1ccccc1-c1ccccc1)c1ccc2c(c1)N(Cc1c(F)cccc1Cl)C(=O)CS2 [Example 46, N-([1,1′-biphenyl]-2-ylmethyl)-4-(2-chloro-6-fluorobenzyl)-3-oxo-3,4-dihyddro-2H-benzo[b][1,4] thiazine-6-carboxamide] | < 5.00
10 | O=C(NCc1cccc(-c2ccccc2)c1)c1ccc2c(c1)N(Cc1c(F)cccc1Cl)C(=O)CS2 [Example 47, N-([1,1′-biphenyl]-3-ylmethyl)-4-(2-chloro-6-fluorobenzyl)-3-oxo-3,4-dihydro-2H-benzo[b][1,4] thiazine-6-carboxamide] | < 5.00
11 | O=C(NCC1CCN(Cc2ccccc2)CC1)c1ccc2c(c1)N(Cc1c(F)cccc1Cl)C(=O)CS2 [Example 48, N-((1-benzylpiperidin-4-yl)methyl)-4-(2-chloro-6-fluorobenzyl)-3-oxo-3,4-dihydro-2H-benzo[b][1,4] thiazine-6-carboxamide] | < 5.00
12 | O=C(NCC1CCCN(c2ccccc2)C1)c1ccc2c(c1)N(Cc1ccccc1F)C(=O)CS2 (centres unmarked) [Example 49, 4-(2-fluorobenzyl)-3-oxo-N-((1-phenyl-piperidin-3-yl)methyl)-3,4-dihydro-2H benzo[b][1,4] thiazine-6-carboxamide] | < 5.00
13 | O=C(NCc1ccoc1)c1ccc2c(c1)N(Cc1ccccc1)C(=O)CS2 [Example 50, 4-benzyl-N-(furan-3-ylmethyl)-3-oxo-3,4-dihydro-2H-benzo[b-1,4]thiazine-6-carboxamide] | < 5.00
14 | O=C(NCc1n[nH]c(=O)c2ccccc12)c1ccc2c(c1)N(Cc1ccccc1)C(=O)CS2 [Example 51, 4-benzyl-3-oxo-N-((4-oxo-3,4-dihydrophthalazin-1-yl)methyl)-3,4-dihydro-2H-benzo[b-1,4]thiazine-6-carboxamide] | < 5.00
15 | Nc1ccc(CNC(=O)c2ccc3c(c2)N(Cc2ccccc2)C(=O)CS3)cn1 [Example 52, N-((6-aminopyridin-3-yl)methyl)-4-benzyl-3-oxo-3,4-dihydro-2H-benzo[b-1,4]thiazine-6-carboxamide] | < 5.00
16 | CN(C)CC(NC(=O)c1ccc2c(c1)N(Cc1ccccc1)C(=O)CS2)c1ccccc1 (centres unmarked) [Example 53, 4-benzyl-N-(2-(dimethylamino)-1-phenylethyl)-3-oxo-3,4-dihydro-2H-benzo[b-1,4]thiazine-6-carboxamide] | < 5.00

Row | Compound | pEC50
17 | O=C(NCc1ncccn1)c1ccc2c(c1)N(Cc1ccccc1)C(=O)CS2 [Example 54, 4-benzyl-3-oxo-N-(pyrimidin-2-ylmethyl)-3,4-dihydro-2H-benzo[b-1,4]thiazine-6-carboxamide] | < 5.00
18 | O=C(NCc1cccc(Cl)c1Cl)c1ccc2c(c1)N(Cc1ccccc1)C(=O)CS2 [Example 55, 4-benzyl-N-(2,3-dichlorobenzyl)-3-oxo-3,4-dihydro-2H-benzo[b-1,4]thiazine-6-carboxamide] | < 5.00
19 | N#CCN(Cc1ccccc1)C(=O)c1ccc2c(c1)N(Cc1ccccc1)C(=O)CS2 [Example 56, N,4-dibenzyl-N-(cyanomethyl)-3-oxo-3,4-dihydro-2H-benzo[b-1,4]thiazine-6-carboxamide] | < 5.00
20 | CC(NC(=O)c1ccc2c(c1)N(Cc1ccccc1)C(=O)CS2)c1ccc(S(C)(=O)=O)cc1 (centres unmarked) [Example 57, 4-benzyl-N-(1-(4-(methylsulfonyl)phenyl)ethyl)-3-oxo-3,4-dihydro-2H-benzo[b-1,4]thiazine-6-carboxamide] | < 5.00
21 | O=C(NCc1cnccn1)c1ccc2c(c1)N(Cc1ccccc1)C(=O)CS2 [Example 58, 4-benzyl-3-oxo-N-(pyrazin-2-ylmethyl)-3,4-dihydro-2H-benzo[b-1,4]thiazine-6-carboxamide] | < 5.00
22 | O=C(NCc1ncco1)c1ccc2c(c1)N(Cc1ccccc1)C(=O)CS2 [Example 59, 4-benzyl-N-(oxazol-2-ylmethyl)-3-oxo-3,4-dihydro-2H-benzo[b-1,4]thiazine-6-carboxamide] | < 5.00
23 | O=C(NCc1ccsc1)c1ccc2c(c1)N(Cc1ccccc1)C(=O)CS2 [Example 61, 4-benzyl-3-oxo-N-(thiophen-3-ylmethyl)-3,4-dihydro-2H-benzo[b-1,4]thiazine-6-carboxamide] | 5.00 to 6.00
24 | Cc1ccc(CNC(=O)c2ccc3c(c2)N(Cc2ccccc2)C(=O)CS3)o1 [Example 62, 4-benzyl-N-((5-methylfuran-2-yl)methyl)-3-oxo-3,4-dihydro-2H-benzo[b-1,4]thiazine-6-carboxamide] | 5.00 to 6.00
25 | Cc1cnc(CNC(=O)c2ccc3c(c2)N(Cc2ccccc2)C(=O)CS3)o1 [Example 63, 4-benzyl-N-((5-methyloxazol-2-yl)methyl)-3-oxo-3,4-dihydro-2H-benzo[b-1,4]thiazine-6-carboxamide] | < 5.00
26 | Cc1cnc(CNC(=O)c2ccc3c(c2)N(Cc2ccccc2)C(=O)CS3)s1 [Example 64, 4-benzyl-N-((5-methylthiazol-2-yl)methyl)-3-oxo-3,4-dihydro-2H-benzo[b-1,4]thiazine-6-carboxamide] | < 5.00
27 | Cc1csc(CNC(=O)c2ccc3c(c2)N(Cc2ccccc2)C(=O)CS3)n1 [Example 65, 4-benzyl-N-((4-methylthiazol-2-yl)methyl)-3-oxo-3,4-dihydro-2H-benzo[b-1,4]thiazine-6-carboxamide] | < 5.00
28 | Cc1noc(CNC(=O)c2ccc3c(c2)N(Cc2ccccc2)C(=O)CS3)n1 [Example 66, 4-benzyl-N-((3-methyl-1,2,4-oxadiazol-5-yl)methyl)-3-oxo-3,4-dihydro-2H-benzo[b-1,4]thiazine-6-carboxamide] | 5.00 to 6.00
29 | Cn1nccc1CNC(=O)c1ccc2c(c1)N(Cc1ccccc1)C(=O)CS2 [Example 67, 4-benzyl-N-((1-methyl-1H-pyrazol-5-yl)methyl)-3-oxo-3,4-dihydro-2H-benzo[b-1,4]thiazine-6-carboxamide] | < 5.00
30 | CC(NC(=O)c1ccc2c(c1)N(Cc1ccccc1)C(=O)CS2)c1ccco1 (centres unmarked) [Example 68, 4-benzyl-N-(1-(furan-2-yl)ethyl)-3-oxo-3,4-dihydro-2H-benzo[b-1,4]thiazine-6-carboxamide] | < 5.00
31 | O=C(NCc1coc2ccccc12)c1ccc2c(c1)N(Cc1ccccc1)C(=O)CS2 [Example 70, N-(benzofuran-3-ylmethyl)-4-benzyl-3-oxo-3,4-dihydro-2H-benzo[b-1,4]thiazine-6-carboxamide] | < 5.00
32 | N#Cc1ccc(CNC(=O)c2ccc3c(c2)N(Cc2ccccc2)C(=O)CS3)cc1 [Example 71, 4-benzyl-N-(4-cyanobenzyl)-3-oxo-3,4-dihydro-2H-benzo[b-1,4]thiazine-6-carboxamide] | 5.00 to 6.00
